In article PMC12469672, “Effects on Oral Squamous Carcinoma Cell Lines and Their Mechanisms of Pyrazole N-Aryl Sulfonate: A Novel Class of Selective Cyclooxygenase-2 Inhibitors” (International Journal of Molecular Sciences, 2025):
pIC50: −log10 of the molar value. “Also recorded” adds a separate entry of the source. Like-named read-outs stand apart in the source and are kept apart here.

Legend:
Type in all cases: cell-based
[1] = tested on: MMP2 mRNA in CAL-27 cells; assay: RT-qPCR MMP2 mRNA, CAL-27; conditions: CAL-27, 24 h, vs control
Procedure: (§1) Equal amounts of RNA were reverse transcribed into cDNA using the Reverse Transcription Kit (AG11705, Accurate Biology, Guangzhou, China) following the manufacturer’s instructions. Quantitative PCR was performed on a QIAGEN Rotor-GeneQ system (9001862, QIAGEN, Hilden, Germany) with SYBR Green Pro Taq HS Premix II (AG11702, Accurate Biology, China).
(§2) The PCR protocol consisted of initial denaturation at 95 °C for 30 s, followed by 40 cycles of 95 °C for 5 s and 60 °C for 30 s. All reactions were performed in triplicate, with melting curve analysis confirming amplification specificity. The expression of the target genes was normalized to GAPDH, and fold changes were calculated in the manner of the 2^−ΔΔCT .

[2] = tested on: CYP19A1 mRNA in CAL-27 cells; assay: RT-qPCR CYP19A1 mRNA, CAL-27; conditions: CAL-27, vs control
Procedure: as §1, §2

[3] = tested on: COX-2 mRNA in CAL-27 cells; assay: RT-qPCR COX-2 mRNA, CAL-27; conditions: CAL-27, working concentrations, 24 h
Procedure: as §1, §2

[4] = tested on: BCL2 mRNA in CAL-27 cells; assay: RT-qPCR BCL2 mRNA, CAL-27; conditions: CAL-27, 24 h, vs control (NC)
Procedure: as §1, §2

[5] = tested on: MMP2 mRNA in SAS cells; assay: RT-qPCR MMP2 mRNA, SAS; conditions: vs control
Procedure: as §1, §2

[6] = tested on: SAS cells; assay: Annexin V-FITC/PI flow cytometry apoptosis, SAS; conditions: 24 h, vs control
Procedure: After 24 h drug treatment at the predefined working concentrations, CAL-27 and SAS cells were trypsinized, centrifuged (200× g, 5 min, RT), and washed twice with 1 mL ice-cold PBS. Cell aliquots ((5–10) × 10^4 cells) were resuspended in 195 μL Annexin V-FITC binding buffer, followed by sequential addition of 5 μL Annexin V-FITC and 10 μL propidium iodide (PI) (BMS500FI-100, Thermo Fisher Scientific, Wien, Austria) with gentle mixing. After 10–20 min of incubation in darkness (20–25 °C) with intermittent resuspension (2–3 times), samples were placed on ice and analyzed within 1 h using a flow cytometer (CytExpert software [Version 2.4.0.28, Beckman Coulter, Brea, CA, USA]). Triplicate independent experiments were performed for statistical analysis.

[7] = tested on: COX-2 mRNA in SAS cells; assay: RT-qPCR COX-2 mRNA, SAS; conditions: working concentrations, 24 h, vs control
Procedure: as §1, §2

[8] = tested on: SAS cells; assay: Hoechst 33342 staining, SAS; conditions: 24 h, working concentrations, vs NC
Procedure: After 24 h drug treatment at the predefined working concentrations, CAL-27 and SAS cells were dyed with 300 μL Hoechst 33342 staining (C1022, Beyotime, China) in the dark at 37 °C for 10 min. Then, the residual Hoechst 33342 staining was washed 3 times with 1 × phosphate-buffered saline (PBS, G4250-500ML, Servicebio, China). The images were then immediately examined under an inverted fluorescence microscope (CX23, Olympus, Japan).

[9] = tested on: CAL-27 cells; assay: CCK-8 proliferation assay, CAL-27; conditions: for pIC50: Homo sapiens; for Selectivity Index CAL-27: SI = IC50,VERO/IC50,CAL-27
Procedure: The OSCC cell lines CAL-27 (STCC12901P, Servicebio, Wuhan, China) and SAS (CC0706, Cellcook, Guangzhou, China) were cultured in Dulbecco Modified Eagle Medium F12 (DMEM/F12) (G4610-500ML, Servicebio, Wuhan, China) supplemented with 10% fetal bovine serum (FBS) (AB-FBS-DIA1050, ABW, Shanghai, China) and 100 U/mL penicillin-streptomycin-gentamicin solution (G4014-100ML, Servicebio, Wuhan, China). VERO cells were cultured in DMEM (G4524-500ML, Servicebio, Wuhan, China) supplemented with 10% FBS (AB-FBS-DIA1050, ABW, China) and 100 U/mL penicillin–streptomycin–gentamicin solution (G4014-100ML, Servicebio, Wuhan, China). […] were maintained at 37 °C in a humidified 5% CO2 incubator. For experiments, 1 × 10^6 cells were seeded per T-25 culture flask.
CAL-27, SAS, and VERO cells were seeded in 96-well plates at a density of 5000 cells per well. At specified time intervals, 10 μL of Cell Counting Kit-8 (CCK-8) reagent (K1018, Apexbio, Boston, MA, USA) was added to each well and incubated for 2 h. Absorbance at 450 nm was measured using a microplate reader (Infinite M200 Pro, Tecan Group, Männedorf, Switzerland).

[10] = tested on: COX-2 protein in CAL-27 cells; assay: Western blot COX-2, CAL-27; conditions: CAL-27, vs control group and CXB-treated group
Procedure: Cell lysates were centrifuged at 12,000× g for 10 min at 4 °C and then quantified using the BCA Protein Assay Kit (CW0014S, Cwbio, Taizhou, China). The lysate was denatured with sodium dodecyl sulfate–polyacrylamide gel electrophoresis (SDS-PAGE) sample loading buffer (P1040, Solarbio, Beijing, China), followed by SDS-PAGE and electrotransfer to polyvinylidene difluoride membranes (10600023, Cytiva, Marlborough, MA, USA). The membranes were incubated overnight at 4 °C with GAPDH (1:5000, 1049-1-AP, Proteintech Group, Wuhan, China), anti-PTGS2 (1:2000, 12375-1-AP, Proteintech Group, China), anti-BAX (1:1000, ab777, Abcam, Cambridge, UK), anti-BCL2 (1:5000, ET1702-53, HUABIO, Hangzhou, China), anti-BCL-XL (1:8000, 10783-1-AP, Proteintech Group, China), anti-MMP2 (1:3000, 66366-1-Ig, Proteintech Group, China), anti-MMP9 (1:3000, 10372-2-AP, Proteintech Group, China), anti-JAK1 (1:3000, 66466-1-Ig, Proteintech Group, China), anti-phospho-JAK1 (1:400, GB115604-100, Servicebio, China), anti-STAT3 (1:2000, 10253-2-AP, Proteintech Group, China), and anti-phospho-STAT3 (1:1000, 39595, Activemotif, Shanghai, China) at the appropriate dilution and then incubated with the secondary antibody at room temperature for 1.5 h. The bands were visualized by employing an ECL detection reagent (36208ES76, Yeasen, Shanghai, China) and independently quantified twice using ImageJ (v1.8.0.322) and ChemiScope Analysis (Version 2.1.6.0) software. Subsequently, the obtained data were normalized to GAPDH.

[11] = tested on: CYP19A1 mRNA in SAS cells; assay: RT-qPCR CYP19A1 mRNA, SAS; conditions: vs control group and CXB-treated group
Procedure: as §1, §2

[12] = CAL-27, 24 h, CAL-27, CCK-8, 24 h, given as a range, read-out: IC50 (range)
[13] = CAL-27, CAL-27, CCK-8, read-out: IC50 CAL-27

| Compound | MMP2 mRNA expression [1] | CYP19A1 mRNA expression [2] | COX-2 mRNA level ([3]; vs CXB-treated group) | COX-2 mRNA level ([3]; vs control) | BCL2 mRNA level [4] | MMP2 mRNA expression [5] | total apoptotic cell population (early and late apoptosis) [6] | COX-2 mRNA level [7] | apoptotic cells (Hoechst 33342, fluorescence microscopy) [8] | pIC50 [9, 12] | pIC50 [9, 13] | Selectivity Index CAL-27 [9] | COX-2 protein expression (Western blot) [10] | CYP19A1 mRNA expression [11] |
| --- | --- | --- | --- | --- | --- | --- | --- | --- | --- | --- | --- | --- | --- | --- |
| Cc1ccc(-c2cc(C)n(S(=O)(=O)Oc3ccc(I)cc3)n2)cc1 [Compound 4b] | significantly downregulated | significantly downregulated | significantly lower | significantly downregulated | significantly downregulated | markedly suppressed | significantly higher | significantly downregulated | significant increase | 4.36 to 4.41 | 4.38 | 2.47 | significantly reduced | significantly reduced |
| Cc1ccc(-c2cc(C)n(S(=O)(=O)Oc3ccccc3Cl)n2)cc1 [Compound 4d] | significantly downregulated | significantly downregulated | significantly lower | significantly downregulated | significantly downregulated | markedly suppressed | significantly higher | marked upregulation | significant increase | 4.26 to 4.35 | 4.27 | >1.86 | significantly reduced | significantly reduced |
| Cc1cc(-c2ccco2)nn1S(=O)(=O)Oc1ccccc1Cl [Compound 5f] | significantly downregulated | slightly influenced the expression, although not significantly | significantly lower | significantly downregulated | upregulated | no statistically significant suppression | significantly higher; also recorded: optimal efficacy | significantly downregulated | significant increase | 4.13 to 4.28 | 4.19 | 3.50 | significantly reduced | significantly reduced |
